Results reported in ChEMBL document CHEMBL4364305, “Medicinal leech antimicrobial peptides lacking toxicity represent a promising alternative strategy to combat antibiotic-resistant pathogens” (Eur J Med Chem, 2019).
In brackets after ≈: the same amount, converted by molar mass. Activity calls are given as the source filed them. No cut-off for these calls is given here. Residues, ends and D or L forms follow the SMILES beside them.

Columns and labels:
Chlamydia trachomatis = assay: Antibacterial activity against Chlamydia trachomatis D/UW-3/Cx infected in mouse McCoy cells assessed as reduction in infected cells preincubated for 2 hrs and measured after 48 hrs by immunofluorescence method; format: functional
Escherichia coli [1] = assay: Antibacterial activity against Escherichia coli MG1655 assessed as reduction in bacterial cell growth incubated for 24 hrs by microtiter dilution method; format: functional; conditions: MG1655, 24 h
Bacillus subtilis [2] = assay: Antibacterial activity against Bacillus subtilis 168 HT assessed as reduction in bacterial cell growth incubated for 24 hrs by microtiter dilution method; format: functional
[3] = Cytotoxicity against mouse McCoy cells assessed as cell viability at 0.5 to 4 times of antibacterial MIC incubated for 48 hrs by calcein AM and ethidium homodimer-1 staining based epifluorescence microscopic method relative to control; conditions: read-out: Activity
Lipid bilayer [4] = assay: Disruption of large POPS unilamellar vesicle membrane assessed as release of carboxyfluorescein measured after 1 min by fluorescence based method
Escherichia coli [5] = assay: Antibacterial activity against Escherichia coli MG1655 assessed as reduction in bacterial cell structural integrity at 0.5 antibacterial MIC incubated for 8 or 24 hrs by scanning electron microscopy; format: functional, organism-based
Lipid bilayer [6] = assay: Disruption of large POPC:POPS unilamellar vesicle membrane assessed as release of carboxyfluorescein measured after 1 min by fluorescence based method
Bacillus subtilis [7] = assay: Induction of morphological changes in Bacillus subtilis 168 HT assessed as cellular debris formation at 0.5 antibacterial MIC incubated for 8 or 24 hrs by scanning electron microscopy; format: functional, organism-based
Bacillus subtilis [8] = assay: Antibacterial activity against Bacillus subtilis 168 HT assessed as reduction in bacterial cell structural integrity at 0.5 antibacterial MIC incubated for 8 or 24 hrs by scanning electron microscopy; format: functional, organism-based
Lipid bilayer [9] = assay: Disruption of large POPC:DOPG unilamellar vesicle membrane assessed as release of carboxyfluorescein measured after 1 min by fluorescence based method
Lipid bilayer [10] = assay: Disruption of large POPC unilamellar vesicle membrane assessed as release of carboxyfluorescein measured after 1 min by fluorescence based method
[11] = Hemolytic activity in human Erythrocyte at 100 uM measured after 1 hr relative to control; format: ADME, cell-based; conditions: erythrocytes, read-out: Activity
[12] = Cytotoxicity against mouse McCoy cells assessed as reduction in cell viability at 4 times of antibacterial MIC incubated for 48 hrs by calcein AM and ethidium homodimer-1 staining based epifluorescence microscopic method relative to control
[13] = Hemolytic activity in human Erythrocyte at 50 uM measured after 1 hr relative to control; format: ADME, cell-based; conditions: erythrocytes, read-out: Activity
[14] = Hemolytic activity in human Erythrocyte at 6.25 uM measured after 1 hr relative to control; format: ADME, cell-based; conditions: erythrocytes, read-out: Activity

Row | SMILES | MIC90 (Chlamydia trachomatis) [µM] | MIC (Escherichia coli [1]) [µM] | MIC (Bacillus subtilis [2]) [µM] | further results
1 | CC[C@H](C)[C@H](NC(=O)[C@H](CC(C)C)NC(=O)[C@@H](N)CS)C(=O)N[C@@H](CCSC)C(=O)N[C@@H](CCCCN)C(=O)N[C@H](C(=O)N[C@@H](CCCNC(=N)N)C(=O)N[C@@H](CCCNC(=N)N)C(=O)N[C@@H](CCCCN)C(=O)N[C@@H](CCCCN)C(=O)O)C(C)C (H-CLIMKVRRKK-OH) | 12.5 (≈ 15.9 µg/mL) | 100 (≈ 128 µg/mL) | 12.6 (≈ 16.1 µg/mL) | 
2 | CC[C@H](C)[C@H](NC(=O)[C@H](CCCNC(=N)N)NC(=O)[C@H](CCSC)NC(=O)[C@@H](NC(=O)[C@H](CCCNC(=N)N)NC(=O)[C@@H](N)Cc1ccccc1)[C@@H](C)CC)C(=O)N[C@@H](CC(C)C)C(=O)N[C@@H](CCCNC(=N)N)C(=O)N[C@H](C(=O)N[C@@H](CC(C)C)C(=O)N[C@@H](CCCCN)C(=O)N[C@@H](CC(C)C)C(=O)O)C(C)C (H-FRIMRILRVLKL-OH) | 3.1 (≈ 4.83 µg/mL) | 10.3 (≈ 16 µg/mL) | 10.3 (≈ 16 µg/mL) | viability at 48 h [3]: 100%; Activity (Lipid bilayer [4]): Dose-dependent effect; Activity (Escherichia coli [5]): Active; Activity (Lipid bilayer [6]): Dose-dependent effect; Activity (Bacillus subtilis [7]): inactive; Activity (Bacillus subtilis [8]): Active; Activity (Lipid bilayer [9]): Dose-dependent effect; Activity (Lipid bilayer [10]): inactive
3 | CC[C@H](C)[C@H](NC(=O)[C@H](CCCCN)NC(=O)[C@H](Cc1ccccc1)NC(=O)[C@H](CCCNC(=N)N)NC(=O)[C@H](CCCCN)NC(=O)[C@@H](NC(=O)[C@@H](NC(=O)[C@H](Cc1ccccc1)NC(=O)CN)[C@@H](C)CC)C(C)C)C(=O)N[C@@H](CC(C)C)C(=O)N[C@H](C(=O)O)C(C)C (H-GFIVKRFKILV-OH) | > 100 | > 97 | 97 (≈ 128 µg/mL) | hemolysis at 1 h, 100 µM [11]: 30%; Activity [12]: 100%
4 | CC[C@H](C)[C@H](N)C(=O)N[C@@H](CCCCN)C(=O)N[C@H](C(=O)N[C@H](C(=O)N[C@@H](C)C(=O)N1CCC[C@H]1C(=O)N[C@@H](CCCCN)C(=O)N[C@@H](CCCCN)C(=O)N[C@H](C(=O)N[C@@H](CCCCN)C(=O)N[C@@H](CC(C)C)C(=O)O)[C@@H](C)CC)C(C)C)[C@@H](C)CC (H-IKIVAPKKIKL-OH) | > 100 | > 102 | > 102 | 
5 | CC[C@H](C)[C@H](N)C(=O)N[C@@H](CO)C(=O)N[C@@H](CCCNC(=N)N)C(=O)N[C@@H](C)C(=O)N[C@@H](CS)C(=O)N[C@@H](CC(C)C)C(=O)N[C@H](C(=O)N[C@@H](CCSC)C(=O)N[C@@H](CCCCN)C(=O)N[C@H](C(=O)N[C@@H](CCCNC(=N)N)C(=O)N[C@@H](CCCNC(=N)N)C(=O)N[C@@H](CCCCN)C(=O)N[C@@H](CCCCN)C(=O)O)C(C)C)[C@@H](C)CC (H-ISRACLIMKVRRKK-OH) | 12.5 (≈ 21.3 µg/mL) | 37.6 (≈ 64 µg/mL) | 9.4 (≈ 16 µg/mL) | 
6 | CC[C@H](C)[C@H](NC(=O)[C@@H](NC(=O)[C@H](CCCCN)NC(=O)[C@H](CCCCN)NC(=O)[C@H](Cc1ccccc1)NC(=O)[C@@H](N)CCCCN)C(C)C)C(=O)N[C@@H](Cc1c[nH]c2ccccc12)C(=O)N[C@@H](CCCCN)C(=O)N[C@@H](CO)C(=O)N[C@@H](Cc1ccccc1)C(=O)N[C@@H](CC(C)C)C(=O)O (H-KFKKVIWKSFL-OH) | 12.5 (≈ 17.8 µg/mL) | 90 (≈ 128 µg/mL) | 45 (≈ 64.1 µg/mL) | viability at 48 h [3]: 100%; hemolysis at 1 h, 50 µM [13]: 50%
7 | CC[C@H](C)[C@H](NC(=O)[C@@H](N)CC(C)C)C(=O)N[C@H](C(=O)N[C@@H](CC(C)C)C(=O)N[C@H](C(=O)N[C@@H](CS)C(=O)N[C@@H](CCCNC(=N)N)C(=O)N[C@@H](CCCCN)C(=O)N[C@@H](CCCCN)C(=O)N[C@@H](CCCCN)C(=O)N[C@@H](CCCCN)C(=O)N1CCC[C@H]1C(=O)N[C@@H](Cc1ccccc1)C(=O)O)[C@@H](C)O)C(C)C (H-LIVLTCRKKKKPF-OH) | 12.5 (≈ 19.7 µg/mL) | > 81 | 40.7 (≈ 64.1 µg/mL) | Activity [12]: 100%
8 | CC[C@H](C)[C@H](NC(=O)CNC(=O)[C@@H](NC(=O)[C@H](CCCCN)NC(=O)[C@@H](NC(=O)CNC(=O)[C@H](CC(C)C)NC(=O)[C@H](Cc1c[nH]c2ccccc12)NC(=O)[C@H](CCCNC(=N)N)NC(=O)[C@@H](N)CC(C)C)[C@@H](C)O)C(C)C)C(=O)N[C@@H](CC(C)C)C(=O)N[C@@H](CCCCN)C(=O)O (H-LRWLGTKVGILK-OH) | > 100 | > 92 | > 92 | 
9 | CC[C@H](C)[C@H](NC(=O)[C@@H](NC(=O)[C@H](CCCNC(=N)N)NC(=O)[C@@H](NC(=O)[C@H](CCCNC(=N)N)NC(=O)[C@H](CCCNC(=N)N)NC(=O)[C@@H](NC(=O)[C@H](CCCNC(=N)N)NC(=O)[C@@H](NC(=O)[C@H](CC(C)C)NC(=O)[C@@H](NC(=O)[C@@H]1CCCN1C(=O)[C@@H](N)CCCNC(=N)N)[C@@H](C)CC)[C@@H](C)CC)C(C)C)[C@@H](C)CC)C(C)C)C(=O)O (H-RPILIRVRRIRVI-OH) | > 100 | 77.1 (≈ 128 µg/mL) | 9.7 (≈ 16.1 µg/mL) | Activity [12]: Toxic
10 | CC(C)C[C@H](NC(=O)[C@H](Cc1ccccc1)NC(=O)[C@H](CS)NC(=O)[C@@H](NC(=O)[C@H](CC(C)C)NC(=O)[C@H](CCCNC(=N)N)NC(=O)[C@H](Cc1c[nH]c2ccccc12)NC(=O)[C@@H](N)CCCNC(=N)N)C(C)C)C(=O)N[C@@H](CS)C(=O)N[C@@H](CCCNC(=N)N)C(=O)N[C@@H](CCCNC(=N)N)C(=O)N[C@@H](CCCCN)C(=O)N[C@@H](CCCCN)C(=O)N[C@H](C(=O)O)C(C)C (H-RWRLVCFLCRRKKV-OH) | 6.3 (≈ 11.7 µg/mL) | 17.2 (≈ 32.1 µg/mL) | 8.6 (≈ 16 µg/mL) | viability at 48 h [3]: 100%; Activity (Lipid bilayer [4]): Dose-dependent effect; Activity (Escherichia coli [5]): Active; Activity (Lipid bilayer [6]): Dose-dependent effect; hemolysis at 1 h, 100 µM [11]: 30%; Activity (Bacillus subtilis [8]): Active; Activity (Lipid bilayer [9]): Dose-dependent effect; Activity (Lipid bilayer [10]): inactive
11 | CC[C@H](C)[C@H](NC(=O)[C@H](CCCCN)NC(=O)[C@@H](N)Cc1c[nH]c2ccccc12)C(=O)N[C@@H](Cc1ccccc1)C(=O)N[C@@H](CCCCN)C(=O)N[C@@H](CC(C)C)C(=O)N[C@@H](CCCCN)C(=O)N[C@@H](CC(C)C)C(=O)N[C@@H](CCCNC(=N)N)C(=O)N[C@@H](CCSC)C(=O)N[C@@H](CC(C)C)C(=O)N[C@@H](Cc1c[nH]c2ccccc12)C(=O)O (H-WKIFKLKLRMLW-OH) | 50 (≈ 83.1 µg/mL) | 77 (≈ 128 µg/mL) | 38.5 (≈ 64 µg/mL) | hemolysis at 1 h, 6.25 µM [14]: 50%
12 | CC[C@H](C)[C@H](NC(=O)CNC(=O)[C@H](C)NC(=O)[C@H](Cc1cnc[nH]1)NC(=O)[C@@H](NC(=O)[C@H](CCCCN)NC(=O)[C@H](Cc1ccc(O)cc1)NC(=O)[C@@H]1CCCN1C(=O)[C@@H](NC(=O)[C@H](CC(C)C)NC(=O)[C@H](CCCCN)NC(=O)[C@H](CCCCN)NC(=O)[C@@H](N)Cc1c[nH]c2ccccc12)C(C)C)[C@@H](C)CC)C(=O)O (H-WKKLVPYKIHAGI-OH) | > 100 | > 82 | > 82 | 
13 | CC[C@H](C)[C@H](NC(=O)CN)C(=O)NCC(=O)N[C@@H](C)C(=O)N[C@H](C(=O)N[C@@H](CC(C)C)C(=O)N[C@@H](CCCCN)C(=O)N[C@H](C(=O)N[C@@H](CC(C)C)C(=O)N[C@H](C(=O)N[C@H](C(=O)NCC(=O)N[C@@H](CC(C)C)C(=O)N1CCC[C@H]1C(=O)N[C@@H](C)C(=O)N[C@@H](CC(C)C)C(=O)N[C@H](C(=O)N[C@@H](CO)C(=O)N[C@@H](Cc1c[nH]c2ccccc12)C(=O)N[C@H](C(=O)N[C@@H](CCCCN)C(=O)N[C@@H](CCCNC(=N)N)C(=O)N[C@@H](CCCCN)C(=O)N[C@@H](CCCNC(=N)N)C(=O)N[C@@H](CCC(N)=O)C(=O)N[C@@H](CCC(N)=O)C(N)=O)[C@@H](C)CC)[C@@H](C)CC)[C@@H](C)O)[C@@H](C)O)C(C)C)C(C)C [MELITTIN] | 2 (≈ 5.69 µg/mL) |  |  | 
